# Reference: patent US12281080B2, “Quinoline-based compounds and methods of inhibiting CDK8/19” (University of South Carolina, priority 2018, dated 2025)
# Tests used:
# Type in all cases: binding
# [1] = target: PYK2 (PTK2B) (Homo sapiens (Human), UniProt Q14289); test: KINOMEscan scanMAX; details: 2000 nM; read-out: Percent Control
# [2] = target: SYK (Homo sapiens (Human), UniProt P43405); test: KINOMEscan scanMAX; details: 2000 nM; read-out: Percent Control
# [3] = target: RIPK5 (DSTYK) (Homo sapiens (Human), UniProt Q6XUX3); test: KINOMEscan scanMAX; details: 2000 nM; read-out: Percent Control
# RIPK5 (DSTYK), sequence (Q6XUX3 whole entry): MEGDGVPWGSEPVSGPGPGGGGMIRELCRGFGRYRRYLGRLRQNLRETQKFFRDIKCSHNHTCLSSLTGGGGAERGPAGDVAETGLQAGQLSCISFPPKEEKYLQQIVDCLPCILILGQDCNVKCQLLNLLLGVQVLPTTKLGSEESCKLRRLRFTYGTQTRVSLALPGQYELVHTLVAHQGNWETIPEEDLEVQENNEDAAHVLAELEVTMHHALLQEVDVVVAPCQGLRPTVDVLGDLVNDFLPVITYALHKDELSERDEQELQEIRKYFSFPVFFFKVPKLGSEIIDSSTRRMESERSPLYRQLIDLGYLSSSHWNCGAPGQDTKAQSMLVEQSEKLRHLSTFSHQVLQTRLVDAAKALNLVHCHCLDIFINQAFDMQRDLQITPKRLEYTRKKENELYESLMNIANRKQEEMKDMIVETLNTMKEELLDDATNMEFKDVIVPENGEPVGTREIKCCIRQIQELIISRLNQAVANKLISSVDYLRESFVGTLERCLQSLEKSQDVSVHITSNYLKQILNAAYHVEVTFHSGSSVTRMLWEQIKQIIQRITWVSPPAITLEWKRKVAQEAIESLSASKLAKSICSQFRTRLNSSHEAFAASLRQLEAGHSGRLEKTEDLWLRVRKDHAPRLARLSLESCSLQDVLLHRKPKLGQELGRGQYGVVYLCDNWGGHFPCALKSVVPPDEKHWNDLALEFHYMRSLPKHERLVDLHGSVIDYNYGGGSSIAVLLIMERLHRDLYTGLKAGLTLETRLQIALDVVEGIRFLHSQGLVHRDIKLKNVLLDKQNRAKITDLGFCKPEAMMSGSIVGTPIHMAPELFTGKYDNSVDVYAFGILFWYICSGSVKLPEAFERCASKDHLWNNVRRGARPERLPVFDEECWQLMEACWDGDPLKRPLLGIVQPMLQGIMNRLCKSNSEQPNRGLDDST
# [4] = target: OSR1 (OXSR1) (Homo sapiens (Human), UniProt O95747); test: KINOMEscan scanMAX; details: 2000 nM; read-out: Percent Control
# [5] = target: BMPR1A (Homo sapiens (Human), UniProt P36894); test: KINOMEscan scanMAX; details: 2000 nM; read-out: Percent Control
# [6] = target: TTK (Homo sapiens (Human), UniProt P33981); test: KINOMEscan scanMAX; details: 2000 nM; read-out: Percent Control
# [7] = target: MAPKAPK2 (Homo sapiens (Human), UniProt P49137); test: KINOMEscan scanMAX; details: 2000 nM; read-out: Percent Control
# MAPKAPK2, sequence (P49137 whole entry): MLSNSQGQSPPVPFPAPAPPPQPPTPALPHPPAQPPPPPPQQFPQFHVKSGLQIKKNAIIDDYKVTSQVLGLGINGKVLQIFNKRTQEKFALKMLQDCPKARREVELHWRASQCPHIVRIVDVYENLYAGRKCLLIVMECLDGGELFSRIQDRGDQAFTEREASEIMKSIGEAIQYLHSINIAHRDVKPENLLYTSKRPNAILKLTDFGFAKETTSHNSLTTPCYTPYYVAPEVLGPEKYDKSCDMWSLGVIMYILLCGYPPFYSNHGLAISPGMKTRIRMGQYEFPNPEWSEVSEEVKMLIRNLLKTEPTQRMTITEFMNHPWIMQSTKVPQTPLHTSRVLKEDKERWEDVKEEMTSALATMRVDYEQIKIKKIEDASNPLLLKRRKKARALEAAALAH
# [8] = target: TGFBR2 (Homo sapiens (Human), UniProt P37173); test: KINOMEscan scanMAX; details: 2000 nM; read-out: Percent Control
# TGFBR2, sequence (P37173 23-567): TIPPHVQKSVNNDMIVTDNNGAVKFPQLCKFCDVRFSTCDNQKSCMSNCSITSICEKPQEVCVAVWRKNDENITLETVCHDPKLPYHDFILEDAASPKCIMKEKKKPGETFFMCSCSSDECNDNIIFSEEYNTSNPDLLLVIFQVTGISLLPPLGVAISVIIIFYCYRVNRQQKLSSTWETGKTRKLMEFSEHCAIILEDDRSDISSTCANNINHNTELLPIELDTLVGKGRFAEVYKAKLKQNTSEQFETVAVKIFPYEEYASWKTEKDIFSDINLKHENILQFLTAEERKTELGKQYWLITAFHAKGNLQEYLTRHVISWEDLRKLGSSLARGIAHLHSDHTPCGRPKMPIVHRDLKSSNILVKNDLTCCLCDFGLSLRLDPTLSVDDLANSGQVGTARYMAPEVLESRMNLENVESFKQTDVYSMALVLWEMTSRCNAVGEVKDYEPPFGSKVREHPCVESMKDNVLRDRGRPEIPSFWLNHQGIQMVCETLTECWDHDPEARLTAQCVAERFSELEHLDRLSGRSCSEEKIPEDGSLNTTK
# [9] = target: AKT3 (Homo sapiens (Human), UniProt Q9Y243); test: KINOMEscan scanMAX; details: 2000 nM; read-out: Percent Control
# [10] = target: MAPKAPK5 (Homo sapiens (Human), UniProt Q8IW41); test: KINOMEscan scanMAX; details: 2000 nM; read-out: Percent Control
# [11] = target: CHEK2 (Homo sapiens (Human), UniProt O96017); test: KINOMEscan scanMAX; details: 2000 nM; read-out: Percent Control
# [12] = target: PRKD2 (Homo sapiens (Human), UniProt Q9BZL6); test: KINOMEscan scanMAX; details: 2000 nM; read-out: Percent Control
# [13] = target: ERK3 (MAPK6) (Homo sapiens (Human), UniProt Q16659); test: KINOMEscan scanMAX; details: 2000 nM; read-out: Percent Control
# [14] = target: FLT3(N841I) (Homo sapiens (Human), UniProt P36888, N841I); test: KINOMEscan scanMAX; details: 2000 nM; read-out: Percent Control
# [15] = target: AXL (Homo sapiens (Human), UniProt P30530); test: KINOMEscan scanMAX; details: 2000 nM; read-out: Percent Control
# [16] = target: YANK1 (STK32A) (Homo sapiens (Human), UniProt Q8WU08); test: KINOMEscan scanMAX; details: 2000 nM; read-out: Percent Control
# [17] = target: DMPK (Homo sapiens (Human), UniProt Q09013); test: KINOMEscan scanMAX; details: 2000 nM; read-out: Percent Control
# DMPK, sequence (Q09013 whole entry): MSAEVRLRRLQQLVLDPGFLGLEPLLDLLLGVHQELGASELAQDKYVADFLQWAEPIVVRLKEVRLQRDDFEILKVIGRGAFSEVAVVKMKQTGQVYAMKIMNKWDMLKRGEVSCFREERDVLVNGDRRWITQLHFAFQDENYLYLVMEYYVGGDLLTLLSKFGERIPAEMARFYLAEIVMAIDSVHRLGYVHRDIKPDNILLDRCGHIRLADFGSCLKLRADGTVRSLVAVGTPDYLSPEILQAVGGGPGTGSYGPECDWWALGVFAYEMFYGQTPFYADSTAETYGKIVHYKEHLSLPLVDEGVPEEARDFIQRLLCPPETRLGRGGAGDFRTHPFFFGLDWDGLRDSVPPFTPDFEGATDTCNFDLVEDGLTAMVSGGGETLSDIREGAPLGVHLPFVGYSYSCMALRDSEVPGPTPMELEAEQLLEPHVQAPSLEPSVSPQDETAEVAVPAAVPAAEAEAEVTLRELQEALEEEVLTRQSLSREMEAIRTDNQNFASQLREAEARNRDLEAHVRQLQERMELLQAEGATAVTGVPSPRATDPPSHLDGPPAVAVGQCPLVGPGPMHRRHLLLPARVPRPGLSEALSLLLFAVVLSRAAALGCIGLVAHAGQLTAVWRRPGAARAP
# [18] = target: PKN1 (Homo sapiens (Human), UniProt Q16512); test: KINOMEscan scanMAX; details: 2000 nM; read-out: Percent Control
# [19] = target: LRRK2 (Homo sapiens (Human), UniProt Q5S007); test: KINOMEscan scanMAX; details: 2000 nM; read-out: Percent Control
# [20] = target: CDK4 (Homo sapiens (Human), UniProt P11802); test: KINOMEscan scanMAX; details: 2000 nM; read-out: Percent Control
# [21] = target: RPS6KA5(Kin.Dom.2-C-terminal) (Homo sapiens (Human), UniProt O75582); test: KINOMEscan scanMAX; details: 2000 nM; read-out: Percent Control
# [22] = target: CSNK2A2 (Homo sapiens (Human), UniProt P19784); test: KINOMEscan scanMAX; details: 2000 nM; read-out: Percent Control
# CSNK2A2, sequence (P19784 whole entry): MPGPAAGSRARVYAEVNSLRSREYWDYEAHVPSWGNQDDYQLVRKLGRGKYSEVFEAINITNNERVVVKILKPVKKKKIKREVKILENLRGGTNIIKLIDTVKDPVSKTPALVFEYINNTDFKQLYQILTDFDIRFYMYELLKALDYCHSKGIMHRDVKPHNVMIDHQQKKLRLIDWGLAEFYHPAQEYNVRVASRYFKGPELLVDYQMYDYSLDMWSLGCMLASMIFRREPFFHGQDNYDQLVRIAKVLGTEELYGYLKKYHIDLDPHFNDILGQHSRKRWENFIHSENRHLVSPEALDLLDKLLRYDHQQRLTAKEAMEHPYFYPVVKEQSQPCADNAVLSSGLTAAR
# [23] = target: ABL1(F317L)-nonphosphorylated (Homo sapiens (Human), UniProt P00519, F317L); test: KINOMEscan scanMAX; details: 2000 nM; read-out: Percent Control
# [24] = target: MST3 (STK24) (Homo sapiens (Human), UniProt Q9Y6E0); test: KINOMEscan scanMAX; details: 2000 nM; read-out: Percent Control
# [25] = target: AURKA (Homo sapiens (Human), UniProt O14965); test: KINOMEscan scanMAX; details: 2000 nM; read-out: Percent Control
# AURKA, sequence (O14965 whole entry): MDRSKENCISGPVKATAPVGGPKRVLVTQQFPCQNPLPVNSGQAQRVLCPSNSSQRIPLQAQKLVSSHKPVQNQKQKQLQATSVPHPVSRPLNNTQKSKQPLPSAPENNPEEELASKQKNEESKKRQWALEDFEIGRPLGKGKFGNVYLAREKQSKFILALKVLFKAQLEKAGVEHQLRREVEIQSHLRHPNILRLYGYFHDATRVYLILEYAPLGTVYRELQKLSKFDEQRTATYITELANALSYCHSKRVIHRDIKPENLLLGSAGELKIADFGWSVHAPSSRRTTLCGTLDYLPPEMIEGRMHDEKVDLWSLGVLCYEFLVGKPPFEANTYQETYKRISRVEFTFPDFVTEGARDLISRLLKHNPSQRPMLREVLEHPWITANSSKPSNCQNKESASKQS
# [26] = target: TSSK1B (Homo sapiens (Human), UniProt Q9BXA7); test: KINOMEscan scanMAX; details: 2000 nM; read-out: Percent Control
# [27] = target: LTK (Homo sapiens (Human), UniProt P29376); test: KINOMEscan scanMAX; details: 2000 nM; read-out: Percent Control
# [28] = target: RPS6KA5(Kin.Dom.1-N-terminal) (Homo sapiens (Human), UniProt O75582); test: KINOMEscan scanMAX; details: 2000 nM; read-out: Percent Control
# RPS6KA5(Kin.Dom.1-N-terminal), sequence (O75582 49-318): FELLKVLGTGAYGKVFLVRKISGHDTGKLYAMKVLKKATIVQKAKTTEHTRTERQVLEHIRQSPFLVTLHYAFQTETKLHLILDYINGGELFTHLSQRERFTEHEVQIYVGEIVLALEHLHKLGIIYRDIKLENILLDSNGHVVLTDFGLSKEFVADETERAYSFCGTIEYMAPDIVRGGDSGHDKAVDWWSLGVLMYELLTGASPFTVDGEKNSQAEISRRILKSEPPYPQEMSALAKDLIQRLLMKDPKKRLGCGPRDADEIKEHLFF
# [29] = target: FLT3(R834Q) (Homo sapiens (Human), UniProt P36888, R834Q); test: KINOMEscan scanMAX; details: 2000 nM; read-out: Percent Control
# [30] = target: LZK (MAP3K13) (Homo sapiens (Human), UniProt O43283); test: KINOMEscan scanMAX; details: 2000 nM; read-out: Percent Control
# [31] = target: NIK (MAP3K14) (Homo sapiens (Human), UniProt Q99558); test: KINOMEscan scanMAX; details: 2000 nM; read-out: Percent Control
# [32] = target: RSK4(Kin.Dom.2-C-terminal) (RPS6KA6) (Homo sapiens (Human), UniProt Q9UK32); test: KINOMEscan scanMAX; details: 2000 nM; read-out: Percent Control
# [33] = target: DDR2 (Homo sapiens (Human), UniProt Q16832); test: KINOMEscan scanMAX; details: 2000 nM; read-out: Percent Control
# [34] = system: 468 human kinases and disease relevant mutant variants; test: KINOMEscan scanMAX panel, whole panel; details: 2,000 nM; CDK2, 3, 4, 5, 7, 9, 11A, 11B, 13, 14, 15, 16, 17, 18, CDKL1, CDKL3, CDKL5
# [35] = target: PRKD1 (Homo sapiens (Human), UniProt Q15139); test: KINOMEscan scanMAX; details: 2000 nM; read-out: Percent Control
# PRKD1, sequence (Q15139 whole entry): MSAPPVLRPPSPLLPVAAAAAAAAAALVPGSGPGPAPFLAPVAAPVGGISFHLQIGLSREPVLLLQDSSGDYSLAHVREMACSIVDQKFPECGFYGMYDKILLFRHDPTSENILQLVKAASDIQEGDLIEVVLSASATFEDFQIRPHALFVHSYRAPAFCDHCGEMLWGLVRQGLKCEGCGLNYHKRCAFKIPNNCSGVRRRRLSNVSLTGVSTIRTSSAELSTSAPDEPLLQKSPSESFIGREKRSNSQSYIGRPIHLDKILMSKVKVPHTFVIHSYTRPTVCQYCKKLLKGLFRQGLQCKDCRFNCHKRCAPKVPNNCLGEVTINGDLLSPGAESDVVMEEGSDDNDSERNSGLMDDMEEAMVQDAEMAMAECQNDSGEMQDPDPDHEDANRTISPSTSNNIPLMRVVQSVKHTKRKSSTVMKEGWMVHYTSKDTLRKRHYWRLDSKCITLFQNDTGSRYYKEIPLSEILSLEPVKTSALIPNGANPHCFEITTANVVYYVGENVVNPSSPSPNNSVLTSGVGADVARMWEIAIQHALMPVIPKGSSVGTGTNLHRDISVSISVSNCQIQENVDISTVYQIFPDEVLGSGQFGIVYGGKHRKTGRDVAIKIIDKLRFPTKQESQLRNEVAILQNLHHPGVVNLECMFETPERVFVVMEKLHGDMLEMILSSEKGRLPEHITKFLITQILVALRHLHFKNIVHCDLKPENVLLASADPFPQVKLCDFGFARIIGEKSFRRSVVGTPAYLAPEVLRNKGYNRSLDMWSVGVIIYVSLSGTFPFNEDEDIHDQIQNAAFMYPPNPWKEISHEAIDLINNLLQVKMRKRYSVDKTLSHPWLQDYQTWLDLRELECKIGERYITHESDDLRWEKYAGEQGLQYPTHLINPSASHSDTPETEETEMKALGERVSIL
# [36] = target: PRKCE (Homo sapiens (Human), UniProt Q02156); test: KINOMEscan scanMAX; details: 2000 nM; read-out: Percent Control
# [37] = target: CSNK1E (Homo sapiens (Human), UniProt P49674); test: KINOMEscan scanMAX; details: 2000 nM; read-out: Percent Control
# [38] = target: SgK110 (Homo sapiens (Human), UniProt P0C264); test: KINOMEscan scanMAX; details: 2000 nM; read-out: Percent Control
# [39] = target: BMPR1B (Homo sapiens (Human), UniProt O00238); test: KINOMEscan scanMAX; details: 2000 nM; read-out: Percent Control
# BMPR1B, sequence (O00238 14-502): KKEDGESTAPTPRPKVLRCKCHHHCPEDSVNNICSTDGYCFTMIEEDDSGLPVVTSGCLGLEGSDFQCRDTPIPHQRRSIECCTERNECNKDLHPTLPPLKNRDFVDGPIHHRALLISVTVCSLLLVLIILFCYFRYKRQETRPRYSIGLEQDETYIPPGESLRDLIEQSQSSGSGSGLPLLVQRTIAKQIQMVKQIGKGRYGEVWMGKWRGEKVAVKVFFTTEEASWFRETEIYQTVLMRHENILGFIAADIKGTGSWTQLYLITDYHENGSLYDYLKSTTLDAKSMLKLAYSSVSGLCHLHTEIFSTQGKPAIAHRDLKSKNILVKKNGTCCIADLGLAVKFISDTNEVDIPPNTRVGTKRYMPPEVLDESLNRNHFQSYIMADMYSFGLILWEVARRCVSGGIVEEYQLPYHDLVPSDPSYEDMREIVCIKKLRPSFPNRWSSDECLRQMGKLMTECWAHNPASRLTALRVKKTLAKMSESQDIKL
smiles,measurement,setting,value
"CN1CCN(C(=O)c2ccc3cc(CCNc4ccnc5ccc(C#N)cc45)ccc3c2)CC1 [compound 6148, 4-((2-(6-(4-methylpiperazine-1-carbonyl)naphthalen-2-yl)ethyl)amino)quinoline-6-carbonitrile]",remaining binding at 2 µM,[1],92%
same,remaining binding at 2 µM,[2],97%
same,remaining binding at 2 µM,[3],69%
same,remaining binding at 2 µM,[4],51%
same,remaining binding at 2 µM,[5],95%
same,remaining binding at 2 µM,[6],72%
same,remaining binding at 2 µM,[7],91%
same,remaining binding at 2 µM,[8],96%
same,remaining binding at 2 µM,[9],100%
same,remaining binding at 2 µM,[10],62%
same,remaining binding at 2 µM,[11],98%
same,remaining binding at 2 µM,[12],88%
same,remaining binding at 2 µM,[13],89%
same,remaining binding at 2 µM,[14],100%
same,remaining binding at 2 µM,[15],95%
same,remaining binding at 2 µM,[16],76%
same,remaining binding at 2 µM,[17],98%
same,remaining binding at 2 µM,[18],100%
same,remaining binding at 2 µM,[19],85%
same,remaining binding at 2 µM,[20],67%
same,remaining binding at 2 µM,[21],100%
same,remaining binding at 2 µM,[22],64%
same,remaining binding at 2 µM,[23],93%
same,remaining binding at 2 µM,[24],100%
same,remaining binding at 2 µM,[25],88%
same,remaining binding at 2 µM,[26],100%
same,remaining binding at 2 µM,[27],93%
same,remaining binding at 2 µM,[28],86%
same,remaining binding at 2 µM,[29],70%
same,remaining binding at 2 µM,[30],46%
same,remaining binding at 2 µM,[31],88%
same,remaining binding at 2 µM,[32],96%
same,remaining binding at 2 µM,[33],64%
same,POC of the other members of the CDK family in the scanMAX panel,[34],≥ 64 POC
same,remaining binding at 2 µM,[35],90%
same,remaining binding at 2 µM,[36],98%
same,remaining binding at 2 µM,[37],81%
same,remaining binding at 2 µM,[38],91%
same,remaining binding at 2 µM,[39],70%
